The results in this text go back to PubChem BioAssay (NCI).

≈ marks a conversion by molar mass, not a printed value. Where “and” joins values, the source holds several entries; their conditions need not be identical. Equal entries are not always repeated.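 Cells were grown in 96-well plates and exposed to each compound for 48 hours at five concentrations; endpoints were interpolated linearly between bracketing concentrations, or set to the highest concentration if not reached. Here, GI50 denotes the concentration required for 50% inhibition of growth. TGI denotes the concentration required for complete inhibition of growth.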 Calls of active or inactive are those of the source. Rule as the data show it: active = GI50 below about 0.43 µM; inactive = the rest.

Among the test systems are NCI-H23 lung; BT-549 breast; EKVX NSCLC; SNB-78 CNS; KM20L2 colon; MALME-3M melanoma; SF-268 CNS; LXFL 529 NSCLC; SF-539 CNS.
Holding throughout (experiment): NCI-60 cell line screen, 48 h

Turning to `CSc1ccc(/C=C2\CNC/C(=C\c3ccc(SC)cc3)C2=O)cc1`, the GI50 with NCI-H23 lung was 21.2 µg/mL (≈ 57.7 µM); in the test on EKVX NSCLC, 150 µg/mL (≈ 408 µM); with SNB-78 CNS it was 28.8 µg/mL (≈ 78.3 µM); in the test with MALME-3M melanoma it was 150 µg/mL (≈ 408 µM); in the test with SF-268 CNS it was 44 µg/mL (≈ 120 µM); with SF-539 CNS it was 15.2 µg/mL (≈ 41.4 µM). Further, the TGI in the test on NCI-H23 lung was > 130 µM and 83.6 µg/mL; in the test with BT-549 breast, greater than 371 µM; in the test with EKVX NSCLC, > 371 µM and 150 µg/mL; with SNB-78 CNS, 150 µg/mL; with MALME-3M melanoma, > 371 µM and 150 µg/mL; with SF-268 CNS, > 141 µM and 150 µg/mL. The TGI in the test on LXFL 529 NSCLC is 68.6 µM; in the test on SF-539 CNS, 32.7 µM and 43.8 µg/mL. In addition, in the test on KM20L2 colon, the result was inactive.
On to `COC(=O)c1ccc2c(c1)C(NC(C)=O)CCc1cc(OC)c(OC)c(OC)c1-2` (centres undefined), for which the TGI with NCI-H23 lung is 1.35 µM; with BT-549 breast it was 78.3 µM; with EKVX NSCLC, greater than 100 µM; in the test with SNB-78 CNS, greater than 4.64 µM; in the test on KM20L2 colon, less than 0.01 µM; in the test with MALME-3M melanoma it was greater than 100 µM. The TGI was 77.9 µM with SF-268 CNS, greater than 100 µM in the test on LXFL 529 NSCLC and 0.056 µM in the test on SF-539 CNS.
